Source: ChEMBL document CHEMBL1201862, “PubChem BioAssay data set” (2004)
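A five-concentration, 48-hour dose response in 96-well plates underlies each endpoint, interpolated linearly between surrounding concentrations. GI50: concentration for 50% inhibition of growth.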 Active and inactive are the calls of the source. Rule as the data show it: active = GI50 up to about 1.1 µM and inactive = higher.

Tests used:
Assay in all cases: NCI-60 cell line screen, 48 h
[1] = tested on: NCI-H226
[2] = tested on: CAKI-1
[3] = tested on: SK-MEL-5
[4] = tested on: MOLT-4
[5] = tested on: SR
[6] = tested on: UACC-62
[7] = tested on: SK-OV-3
[8] = tested on: SW-620
[9] = tested on: A498
[10] = tested on: M14
[11] = tested on: UACC-257
[12] = tested on: A549
[13] = tested on: HT-29
[14] = tested on: SK-MEL-2
[15] = tested on: HCT-15
[16] = tested on: NCI-H23
[17] = tested on: U-251
[18] = tested on: MDA-MB-231
[19] = tested on: NCI-H460
[20] = tested on: NCI/ADR-RES
[21] = tested on: EKVX
[22] = tested on: LOX IMVI
[23] = tested on: MDA-MB-435
[24] = tested on: NCI-H522
[25] = tested on: KM12
[26] = tested on: SNB-75
[27] = tested on: HOP-92
[28] = tested on: MCF7
[29] = tested on: COLO 205
[30] = tested on: SF-539
[31] = tested on: HL-60
[32] = tested on: MDA-N
[33] = tested on: SN12C
[34] = tested on: OVCAR-4
[35] = tested on: SK-MEL-28
[36] = tested on: PC-3
[37] = tested on: T47D
[38] = tested on: OVCAR-5
[39] = tested on: HOP-62
[40] = tested on: SF-295
[41] = tested on: UO-31
[42] = tested on: CCRF-CEM
[43] = tested on: BT-549
[44] = tested on: SNB-19
[45] = tested on: OVCAR-3
[46] = tested on: IGROV-1
[47] = tested on: 786-0
[48] = tested on: OVCAR-8
[49] = tested on: K562
[50] = tested on: HCC 2998
[51] = tested on: DU-145
[52] = tested on: RPMI-8226
[53] = tested on: TK-10
[54] = tested on: ACHN
[55] = tested on: HCT-116
[56] = tested on: RXF 393
[57] = tested on: Malme-3M

In the case of `CC(=O)Nc1cccc(N2C(=O)/C(=C\c3cccc(Oc4ccccc4)c3)S(=O)(=O)C2c2ccccc2)c1` (configuration not stated), the GI50 [1] is reported as > 100 µM (inactive), the GI50 [2] is reported as 53.5 µM (inactive) and the GI50 [3] is reported as 76.6 µM (inactive). The GI50 [4] was 16.1 µM (inactive), the GI50 [5] was 15.9 µM (inactive) and the GI50 [6] was 43.6 µM (inactive). The GI50 [7] was > 100 µM (inactive), the GI50 [8] was 37.8 µM (inactive) and the GI50 [9] was > 100 µM (inactive). For the same compound, the GI50 [10] was 90.6 µM (inactive), the GI50 [11] was > 100 µM (inactive) and the GI50 [12] was > 100 µM (inactive). For the same compound, the GI50 [13] was 64.9 µM (inactive), the GI50 [14] was 55.6 µM (inactive) and the GI50 [15] was over 100 µM. For the same compound, the GI50 [16] was 97.7 µM (inactive), the GI50 [17] was 65.6 µM (inactive) and the GI50 [18] was > 100 µM (inactive). For the same compound, the GI50 [19] was > 100 µM (inactive), the GI50 [20] was 55.5 µM (inactive) and the GI50 [21] was 73.6 µM (inactive). For the same compound, the GI50 [22] was 27.7 µM (inactive), the GI50 [23] was 34 µM (inactive) and the GI50 [24] was 69 µM (inactive). For the same compound, the GI50 [25] was 68.5 µM (inactive), the GI50 [26] was > 100 µM (inactive) and the GI50 [27] was 43.3 µM (inactive). For the same compound, the GI50 [28] was 34 µM (inactive), the GI50 [29] was 59.7 µM (inactive) and the GI50 [30] was 36 µM (inactive). For the same compound, the GI50 [31] was 18.9 µM (inactive), the GI50 [32] was 33.1 µM (inactive) and the GI50 [33] was > 100 µM (inactive). The GI50 [34] was 25.2 µM (inactive), the GI50 [35] was > 100 µM (inactive) and the GI50 [36] was 64.3 µM (inactive). For the same compound, the GI50 [37] was 25 µM (inactive), the GI50 [38] was > 100 µM (inactive) and the GI50 [39] was > 100 µM (inactive). For the same compound, the GI50 [40] was 46.5 µM (inactive), the GI50 [41] was 33.1 µM (inactive) and the GI50 [42] was 57.8 µM (inactive). The GI50 [43] was 69.8 µM (inactive), the GI50 [44] was > 100 µM (inactive) and the GI50 [45] was 45.4 µM (inactive). For the same compound, the GI50 [46] was 50.7 µM (inactive), the GI50 [47] was > 100 µM (inactive) and the GI50 [48] was 37.1 µM (inactive). For the same compound, the GI50 [49] was 26.7 µM (inactive), the GI50 [50] was > 100 µM (inactive) and the GI50 [51] was > 100 µM (inactive). The GI50 [52] was 61.5 µM (inactive), the GI50 [53] was > 100 µM (inactive) and the GI50 [54] was > 100 µM (inactive). For the same compound, the GI50 [55] was 34.1 µM (inactive), the GI50 [56] was > 100 µM (inactive) and the GI50 [57] was > 100 µM (inactive).
